US20230183291A1, “ANTI-INFECTIVE BICYCLIC PEPTIDE LIGANDS” (priority 2020, published 2023)

Legend:
[1] = target: T1, Biotinylated Human ACE2, His, Avitag protein (Homo sapiens, UniProt Q9BYF1); experiment: Surface plasmon resonance (SPR) single cycle kinetics (SCK) direct binding; conditions: 25° C., Langmuir (1:1) model
T1 construct: His; purchased ACROBiosystems AC2-H82E6
Description: 2. Affinity Determination by Surface Plasmon Resonance (SPR) Via Single Cycle Kinetics (SCK)
Binding of bicyclic peptides of the invention to Biotinylated Human ACE2, His, Avitag™ protein (ACROBiosystems, AC2-H82E6) was assessed by a SCK analysis. Experiments were performed at 25° C. on a Biacore T200 (Cytiva) running Biacore T200 Control software V2.0.1 and Evaluation software V3.0 (Cytiva). HBS-EP+ (Cytiva) was used as running buffer as well as for ligand and analyte dilutions. Biotin CAPture reagent was loaded onto a Series S Sensor CAP Chip (Cytiva) followed by loading of the ACE2 protein at a flow rate of 2 μl/min. The surface was then allowed to stabilise.
SCK data was obtained using bicyclic peptides of the invention as analytes injected at a flow rate of 30 μl/min to minimise any potential mass transfer effects. A minimum four point 2-fold dilution of analyte based on the affinity of the bicyclic peptides of the invention in running buffer was used without regeneration between each concentration. The association phases were monitored for 100 seconds for each of the four injections of increasing concentrations of analyte and a single dissociation phase was measured for 400 seconds following the last injection of analyte. Regeneration of the sensor chip surface was conducted using the CAP Chip standard regeneration buffer (Cytiva).
The signal from the reference channel Fc1 (no ACE2 captured) was subtracted from that of Fc2, Fc3 and Fc4 to correct for bulk effect and differences in non-specific binding to a reference surface. The signal from each blank run (Fc2-ACE2 captured but no antigen) was subtracted to correct for differences in surface stability. The double referenced sensorgrams were fitted with the Langmuir (1:1) binding model (Equation 1a below) where the closeness of fit of the data to the model is evaluated using the Chi square value which describes the deviation between the experimental and fitted (observed and expected) curves (Equation 1b below).

[2] = target: T1, Biotinylated Human ACE2, His, Avitag protein; experiment: Surface plasmon resonance (SPR) multiple cycle kinetics (MCK) direct binding; conditions: 25° C., 6.25 nM to 100 nM analyte, Langmuir (1:1) model
Description: 3. Affinity Determination by Surface Plasmon Resonance (SPR) Via Multiple Cycle Kinetics (MCK)
Binding of bicyclic peptides of the invention to Biotinylated Human ACE2, His, Avitag™ protein (ACROBiosystems, AC2-H82E6) was assessed by a MCK analysis. Experiments were performed at 25° C. on a Biacore T200 (Cytiva) running Biacore T200 Control software V2.0.1 and Evaluation software V3.0 (Cytiva). HBS-EP+(Cytiva) was used as running buffer as well as for ligand and analyte dilutions. Biotin CAPture reagent was loaded onto a Series S Sensor CAP Chip (Cytiva) followed by loading of biotinylated ACE2 at a flow rate of 2 μl/min. The surface was then allowed to stabilise.
MCK data was obtained using bicyclic peptides of the invention as analytes injected at a flow rate of 30 μl/min to minimise any potential mass transfer effects. A five point, two-fold dilution range from 6.25 nM to 100 nM of analyte was prepared in running buffer. For each concentration, the association phases were monitored for 250 seconds and the dissociation phase was measured for 450 seconds. Regeneration of the sensor chip surface was conducted between cycles using the CAP Chip standard regeneration buffer (Cytiva). Multiple repeats of a blank and of Bicycle were programmed into the kinetic run in order to check the stability of both the surface and analyte over the kinetic cycles. […]

T1 sequence (Q9BYF1 18-740 limits assumed): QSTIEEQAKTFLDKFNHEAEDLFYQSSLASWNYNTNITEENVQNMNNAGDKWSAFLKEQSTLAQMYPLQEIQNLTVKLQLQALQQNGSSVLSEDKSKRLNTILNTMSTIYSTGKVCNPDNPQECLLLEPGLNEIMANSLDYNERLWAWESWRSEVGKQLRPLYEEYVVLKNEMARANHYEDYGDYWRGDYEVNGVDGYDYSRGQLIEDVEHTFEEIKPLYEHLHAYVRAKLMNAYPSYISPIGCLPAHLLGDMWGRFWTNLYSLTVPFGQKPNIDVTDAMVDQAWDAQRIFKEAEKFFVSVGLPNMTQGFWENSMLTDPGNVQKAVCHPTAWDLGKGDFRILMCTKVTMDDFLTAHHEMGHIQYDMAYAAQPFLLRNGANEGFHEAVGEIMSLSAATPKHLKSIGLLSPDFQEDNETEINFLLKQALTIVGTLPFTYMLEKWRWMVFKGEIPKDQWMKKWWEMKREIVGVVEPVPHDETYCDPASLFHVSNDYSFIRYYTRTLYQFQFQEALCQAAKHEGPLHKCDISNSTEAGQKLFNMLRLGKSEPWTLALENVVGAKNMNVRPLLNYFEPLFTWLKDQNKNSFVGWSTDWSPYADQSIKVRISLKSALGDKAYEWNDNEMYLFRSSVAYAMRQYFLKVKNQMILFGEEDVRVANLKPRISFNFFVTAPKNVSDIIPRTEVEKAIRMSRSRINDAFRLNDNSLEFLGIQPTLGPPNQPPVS

Row | Substance | Geometric Mean KD (nM) [1] | Geometric Mean KD (nM) [2]
1 | CiNEVLCiiSWA[HArg]ANSFCiii cyclised with TATA [BCY18783, Ac-(SEQ ID NO: 55)] | No sig. binding at top conc. tested | 
2 | CiNAVLCiiSWA[HArg][HyP]NSFCiii cyclised with TATA [BCY19024, Ac-(SEQ ID NO: 56)] |  | No sig. binding at top conc. tested
3 | CiNAVLCiiSWA[HArg][dA]NSFCiii cyclised with TATA [BCY18256, Ac-(SEQ ID NO: 45)] | No sig. binding at top conc. tested | 
4 | CiNDVLCiiSWA[HArg]ANSFCiii cyclised with TATA [BCY18659, Ac-(SEQ ID NO: 54)] | No sig. binding at top conc. tested | 
